Paper PMC4352194, “Physicochemical and Biological Properties of Oxovanadium(IV), Cobalt(II) and Nickel(II) Complexes with Oxydiacetate Anions” (Biological Trace Element Research, 2014)

Assays:
[1] = Conductometric titration: limiting molar conductance and association constants; type: physicochemical; details: 298.15 K
Experimental: Conductometric measurements were accomplished on the Cerko Lab System microtitration unit fitted with a 5-mL Hamilton’s syringe, a CD-201 conductometric cell with the constant k = 0.096 cm^−1 (HYDROMET) and a self-made measuring cell equipped with a magnetic stirrer. The conductometric electrode was standardized with conductivity standards (aqueous KCl solutions) of conductivity 84 and 200 μS/cm, purchased from Hamilton Company. The measurements were carried out at 298.15 ± 0.10 K controlled by the Lauda E100 circulation thermostat. The titrant (5 mM [Co(ODA)(H2O)] or [Ni(ODA)(H2O)3]) was added to the titrand (0–50 % v/v DMSO-H2O) both at the same mole fraction of organic solvent, in increments of 0.01 mL, with a pause of 60 s. Each titration was repeated at least three times in order to check the reproducibility of the data. The limiting molar conductance values (Λo) and the association constants (logK ass) for the nickel(II) and cobalt(II) complexes were computed using the Shedlovsky’s and Pitt’s method. The physicochemical parameters of the binary solvents used in the calculations were taken from the literature. They are collected in Table 1.
The limiting molar conductance values (Λo) and the association constants (logK ass) for the nickel(II) and cobalt(II) complexes were computed using Shedlovsky’s and Pitt’s equations and are consequently collected in Table 4.

Escherichia coli = experiment: Disc diffusion test; type: cell-based; details: E. coli
Experimental: (§1) The antimicrobial activity of complex compounds was assessed against Bacillus subtilis, Escherichia coli, Enterococcus faecalis, Pseudomonas aeruginosa, Staphylococcus aureus, Staphylococcus epidermidis (all strains were from the collection of the Department of Molecular Biology, University of Gdańsk). All bacteria were cultured in the Luria-Bertani (LB) broth at 310.15 K in the air with shaking. LB agar plates were prepared by the supplementation of LB broth with the 1.5 % bacteriological agar. Stock solutions of complex compounds were freshly prepared in the LB broth at the concentration of 25 mg/mL. Aliquots of 0.05 mL of bacterial culture at the optical density at 600 nm of 0.1 (inoculum 5 × 10^6 cells per plate) were spread on LB agar plates. Sterile filter paper discs (of 6 mm diameter) were impregnated with solutions of complex compounds prepared in the deionized water at the following amounts: 0.1, 0.2, 0.5 and 1.0 mg per disc and placed on agar plates. After an overnight incubation at 310.15 K, zones of bacterial growth inhibition were measured. Neomycin at the amount of 0.1 mg/disc was used as a control.

Staphylococcus aureus = experiment: Disc diffusion test; type: cell-based; details: S. aureus
Experimental: as §1

Enterococcus faecalis = experiment: Disc diffusion test; type: cell-based; details: E. faecalis
Experimental: as §1

Pseudomonas aeruginosa = experiment: Disc diffusion test; type: cell-based; details: P. aeruginosa
Experimental: as §1

[2] = test system: Staphylococcus epidermidis; experiment: Disc diffusion test; type: cell-based; details: S. epidermidis
Experimental: as §1

[3] = Pitts method, DMSO-water 0 % v/v
[4] = Pitts method, DMSO-water 10 % v/v
[5] = Pitts method, DMSO-water 20 % v/v
[6] = Pitts method, DMSO-water 30 % v/v
[7] = Pitts method, DMSO-water 40 % v/v
[8] = Pitts method, DMSO-water 50 % v/v
[9] = Shedlovsky method, DMSO-water 0 % v/v
[10] = Shedlovsky method, DMSO-water 10 % v/v
[11] = Shedlovsky method, DMSO-water 20 % v/v
[12] = Shedlovsky method, DMSO-water 30 % v/v
[13] = Shedlovsky method, DMSO-water 40 % v/v
[14] = Shedlovsky method, DMSO-water 50 % v/v

Row | SMILES | association constant logK ass [1, 3] | limiting molar conductance Λo [1, 3] | association constant logK ass [1, 4] | limiting molar conductance Λo [1, 4] | association constant logK ass [1, 5] | limiting molar conductance Λo [1, 5] | association constant logK ass [1, 6] | limiting molar conductance Λo [1, 6] | association constant logK ass [1, 7] | limiting molar conductance Λo [1, 7] | association constant logK ass [1, 8] | limiting molar conductance Λo [1, 8] | association constant logK ass [1, 9] | limiting molar conductance Λo [1, 9] | association constant logK ass [1, 10] | limiting molar conductance Λo [1, 10] | association constant logK ass [1, 11] | limiting molar conductance Λo [1, 11] | association constant logK ass [1, 12] | limiting molar conductance Λo [1, 12] | also measured
1 | O.O.O.O=C(O)COCC(=O)O.[Co] [Co(ODA), [Co(ODA)(H2O)2]·H2O] | 3.38 (±0.01) | 226.58(±1.32) S cm^2 mol^−1 | 3.51 (±0.01) | 173.97(±0.60) S cm^2 mol^−1 | 3.77 (±0.01) | 134.29(±1.09) S cm^2 mol^−1 | 3.89 (±0.01) | 92.53(±0.96) S cm^2 mol^−1 | 4.05 (±0.01) | 57.02(±0.71) S cm^2 mol^−1 | 4.32 (±0.03) | 29.74(±1.46) S cm^2 mol^−1 | 3.35 (±0.01) | 223.49(±1.45) S cm^2 mol^−1 | 3.49 (±0.01) | 171.55(±0.74) S cm^2 mol^−1 | 3.77 (±0.01) | 133.47(±1.00) S cm^2 mol^−1 | 3.89 (±0.01) | 92.16(±1.07) S cm^2 mol^−1 | association constant logK ass [1, 13]: 4.09 (±0.03); limiting molar conductance Λo [1, 13]: 55.24(±0.84) S cm^2 mol^−1; association constant logK ass [1, 14]: 4.22 (±0.02); limiting molar conductance Λo [1, 14]: 28.52(±1.58) S cm^2 mol^−1; Zone of growth inhibition (Escherichia coli; 500 μg/disc): 12 mm; Zone of growth inhibition (Escherichia coli; 1000 μg/disc): 14 mm; Zone of growth inhibition (Staphylococcus aureus; 100 μg/disc): 7 mm; Zone of growth inhibition (Staphylococcus aureus; 500 μg/disc): 12 mm; Zone of growth inhibition (Staphylococcus aureus; 1000 μg/disc): 17 mm; Zone of growth inhibition (Enterococcus faecalis; 500 μg/disc): 10 mm; Zone of growth inhibition (Enterococcus faecalis; 1000 μg/disc): 15 mm; Zone of growth inhibition (Pseudomonas aeruginosa; 500 μg/disc): 14 mm; Zone of growth inhibition (Pseudomonas aeruginosa; 1000 μg/disc): 18 mm; Zone of growth inhibition ([2]; 100 μg/disc): 8 mm; Zone of growth inhibition ([2]; 500 μg/disc): 19 mm; Zone of growth inhibition ([2]; 1000 μg/disc): 23 mm
2 | O.O.O.O.O.O.O.O.O.O=C([O-])COCC(=O)[O-].O=C([O-])COCC(=O)[O-].[Ni+2].[Ni+2] [Ni(ODA), [Ni(ODA)(H2O)3]·1.5H2O] | 3.34 (±0.01) | 216.74(±1.08) S cm^2 mol^−1 | 3.48 (±0.01) | 161.75(±0.93) S cm^2 mol^−1 | 3.56 (±0.01) | 114.72(±1.55) S cm^2 mol^−1 | 3.75 (±0.01) | 91.35(±1.33) S cm^2 mol^−1 | 4.05 (±0.01) | 52.00(±0.50) S cm^2 mol^−1 | 4.17 (±0.04) | 29.49(±0.92) S cm^2 mol^−1 | 3.33 (±0.01) | 216.10(±0.74) S cm^2 mol^−1 | 3.47 (±0.01) | 161.00(±0.95) S cm^2 mol^−1 | 3.59 (±0.01) | 119.83(±0.83) S cm^2 mol^−1 | 3.74 (±0.01) | 90.63(±1.37) S cm^2 mol^−1 | association constant logK ass [1, 13]: 4.05 (±0.02); limiting molar conductance Λo [1, 13]: 51.85(±0.61) S cm^2 mol^−1; association constant logK ass [1, 14]: 4.15 (±0.03); limiting molar conductance Λo [1, 14]: 28.80(±0.48) S cm^2 mol^−1; Zone of growth inhibition (Staphylococcus aureus; 500 μg/disc): 7 mm; Zone of growth inhibition (Staphylococcus aureus; 1000 μg/disc): 8 mm
3 | O.O.O=C([O-])COCC(=O)[O-].[O]=[V+2] [VO(ODA), [VO(ODA)(H2O)2]] | – | – | – | – | – | – | – | – | – | – | – | – | – | – | – | – | – | – | – | – | Zone of growth inhibition (Enterococcus faecalis; 500 μg/disc): 9 mm; Zone of growth inhibition (Enterococcus faecalis; 1000 μg/disc): 13 mm; Zone of growth inhibition ([2]; 1000 μg/disc): 12 mm
